Measurements as given in patent publication US20250326814A1, “MODIFIED OXYNTOMODULIN AND METHODS OF USE THEREOF” (OPKO BIOLOGICS LTD., priority 2024, published 2025).
“Also recorded” adds a separate entry of the source. Blank lines part the entries; values can stand above or below the compound they belong to. Non-standard residues stand in square brackets, D forms with d. Residues, ends and D or L forms follow the SMILES beside them. *: point of attachment. X1 = O=C(O)CCCCCCCCCCCCCCCCCCC(=O)N[C@@H](CCC(=O)NCCOCCOCC(=O)NCCOCCOCC(=O)N[C@@H](CCCCNC(=O)C*)C(=O)NCC(=O)O)C(=O)O; Aib = CC(C)(N)C(=O)O

Tests used:
[1] = Solubility data of the binder complex; assay type: physicochemical
Source text: The structure and characteristics of the binder complex are detailed in Table 4 below.

DIO mice [2] = test: Organ weights at termination in DIO mice; assay type: in vivo; conditions: mid and high (5 and 15 nmol/kg)
Experimental: (§1) After termination, the liver was collected and weighed. Specific liver samples and biopsies were dissected and processed as specified in table “Termination samples” in the protocol and further described below.
(§2) Sixty C57BL/6JRj male mice were fed a high fat diet (60% HFD, D12492—Ssniff) for 20 weeks before treatment start. […] Body weight and food intake (24 h) were measured daily. In week 3, an OGTT study was performed. Baseline and preterminal fasting blood glucose and plasma insulin were assessed. Preterminal plasma TC and TG were assessed. Terminal endpoints included liver and heart weight, liver TC, TG, […] and lipid content (HE staining).

DIO mice [3] = test: Weight loss in DIO mice with OPK-88604 and OPK-88006, 30 nmoles/kg; assay type: in vivo; conditions: vs placebo, listed as OPK-88604
Experimental: (§3) The animals were individually weighed and analyzed for lipid and cholesterol levels prior to treatment and following completion of the study. The levels of fasting glucose and insulin levels were analyzed, and oral glucose tolerance test was performed and compared between groups The levels of plasma triglycerides and cholesterol were evaluated at the end of study and compared to base levels prior to treatment. Levels of total cholesterol, triglycerides and glycogen were also examined at the end of study. Histology of liver was used to analyze for lipid droplets in the liver. All tests were conducted using routine methods known in the art.
DIO mice with weights of around 55 grams were divided into three groups and treated with placebo, 30 nmoles/kg of OPK-88604, or 30 nmoles/kg of OPK-88006 for 4 weeks. The animals were weighed daily for the period of treatment.

DIO mice [4] = test: Body weight and food intake in DIO mice, 4 weeks daily treatment; assay type: in vivo
Experimental: as §3
The mice used in the studies were the gubra diet-induced obese (DIO) mouse model. This mouse model is fed a high fat diet that results in rapid weight gain. The DIO mice were based on male C57BI/6J mice and ready for experiment after 18 weeks on a 60% high fat diet.
To ensure accurate monitoring of weight changes over the course of the study, the animals were weighed daily with precision, prior to dosing at 7:00 AM. Body weight data was recorded in two formats: (1) Absolute measurements: The direct weight of the animal each day, and (2) Relative measurements: The weight expressed as a percentage relative to the body weight recorded on Day 1.
as §2

DIO mice [5] = test: Liver H&E staining for lipid droplets / liver lipid in DIO mice; assay type: in vivo
Experimental: In summary, glass slides with paraffin embedded sections were deparaffinated in xylene and rehydrated in series of graded ethanol.
Slides treated with histochemical and immunohistochemical stains were scanned using a 20× objective in a ScanScope AT slide scanner (Aperio).
Hematoxylin & Eosin (H&E) staining: Sections of FFPE tissue were incubated in Mayer's Hematoxylin (Dako), washed in tap water, stained in Eosin Y solution (Sigma-Aldrich), dehydrated in graded ethanol and cover slipped.
as §2

[6] = biological target: T1, glucagon-like peptide-1 (GLP1) receptor (Homo sapiens, UniProt P43220); test: GLP-1 activity EC50 of OXM analogs and GLP-1 therapeutics (Example 4, Table 9); assay type: cell-based; conditions: GLP-1 activity; Table 9; read-out: EC50
T1 construct: expressed in transfected cells; host or cells: CHO-K1
Source text: The potencies of the modified OXM analogs newly disclosed in the present application, the OXM Analog alone, and the PEGylated OXM analog were examined and compared by measuring the EC50 of both receptors, glucagon-like peptide-1 (GLP1) and glucagon (GCGR).

DIO mice [7] = test: Plasma cholesterol and triglyceride in DIO mice; assay type: in vivo
Experimental: For termination blood samples, during anesthesia with isoflurane, the abdominal cavity was opened, and cardiac blood was drawn with a syringe into a Microvette/Vacuette of appropriate dimensions with anticoagulant and mixed by inversion 5 times. Blood was placed at 4° C. until centrifuged at 3000 g for 10 minutes. The plasma supernatants were transferred to new tubes and immediately frozen on dry ice. The samples were stored at −70° C.
Alanine transaminase (ALT), Aspartate transaminase (AST), Triglycerides (TG) and Total Cholesterol (TC): Blood samples were collected in heparinized tubes and plasma was separated and stored at −70° C. until analysis. Samples were measured using commercial kits (Roche Diagnostics), on the cobas c 501 autoanalyzer.
as §2

DIO mice [8] = test: Oral glucose tolerance test in DIO mice; assay type: in vivo
Experimental: Animals were housed in a clean cage and fasted for 4 hours prior to oral or intraperitoneal glucose administration. At timepoint 0, mice receive an oral or intraperitoneal dose of 10 ml/kg of 200 mg/ml standard glucose solution (Fresenius Kabi, DK). At timepoint 0, mice received an oral or intraperitoneal dose of 4 ml/kg of standard 500 mg/ml glucose solution (Fresenius Kabi, DK). Blood samples (10 μl) were collected at various timepoints defined in the study protocol into heparinized glass capillary tubes and immediately suspended in glucose/lactate system solution buffer (EKF-diagnostics, Germany). Blood glucose (BG) was measured using a BIOSEN c-Line glucose meter (EKF-diagnostics, Germany) according to the manufacturer's instructions. After the last blood sample and/or drug dose, the animals were returned to the normal feeding schedule.
as §2

DIO mice [9] = test: Body composition (fat and lean tissue mass) in DIO mice; assay type: in vivo
Experimental: The body composition of mice was assessed by an EchoMRI 3 in 1 Body composition analyzer (EchoMRI, US). Non-anaesthetized animals were placed in a plastic tube inside the MRI scanner for approximately 80 seconds. The body composition was reported as fat mass and fat free mass (lean mass).
as §2

GCGR = GCGR (Homo sapiens, UniProt P47871); test: Glucagon activity in vitro of PEGylated and acylated OXM peptide analogs (Table 12); assay type: cell-based
Experimental: (§4) The potential benefits of novel acylated OXM products relative to the PEGylated OXM peptide were evaluated for GLP-1 and Glucagon activity in vitro, molecular weight, dosing, and efficacy in a DIO Mouse model.
(§5) The potency of the acylated OXM peptides was compared with the native OXM peptide alone and Pegylated OXM peptide to evaluate the impact of acylation on GLP-1 and Glucagon activities.

DIO mice [10] = test: Liver cholesterol, triglyceride and glycogen in DIO mice; assay type: in vivo
Experimental: as §1
The Liver TG TC piece (25±5 mg) was dissected from the right medial lobe, with no edges, on the opposite side of the sponsor piece. The samples were weighed individually, collected in tubes and frozen in liquid nitrogen. The samples were stored at −70° C.
Liver Triglycerides (TG) and Total cholesterol (TC): The liver content of triglyceride and total cholesterol was extracted from the liver samples into 5% NP-40, in a homogenization process followed by a heating step, where the samples were heated twice to 90° C. The samples were then centrifuged, and the supernatant was collected. The TG and TC levels were then determined by measurement on the cobas c 501 autoanalyzer with the relevant commercial kits from Roche Diagnostics.
as §2

GLP1 = GLP1 (Homo sapiens, UniProt P43220); test: GLP-1 activity in vitro of PEGylated and acylated OXM peptide analogs (Table 12); assay type: cell-based
Experimental: as §4, §5

DIO mice [11] = test: Fasting blood glucose and plasma insulin in DIO mice; assay type: in vivo
Experimental: For in vivo blood samples, tail-vein, tongue or cheek blood was collected in a Microvette tube of appropriate dimensions with anticoagulant and mixed by inversion 5 times. Blood was placed at 4° C. until centrifuged at 3000 g for 10 minutes. The plasma supernatants were transferred to new tubes and immediately frozen on dry ice. The samples were stored at −70° C.
Insulin: Blood samples were collected in heparinized tubes and plasma was separated and stored at −70° C. until analysis. Insulin was measured using the commercial MSD platform (Meso Scale Diagnostics).
as §2

[12] = 15 nmol/kg daily, 28 days, OPK-88604 vs semaglutide
[13] = 28 day treatment, vs semaglutide
[14] = mid and high (5 and 15 nmol/kg)
[15] = 28 day treatment, vs semaglutide, listed as OPK-88604

GCGR, sequence (P47871 26-477): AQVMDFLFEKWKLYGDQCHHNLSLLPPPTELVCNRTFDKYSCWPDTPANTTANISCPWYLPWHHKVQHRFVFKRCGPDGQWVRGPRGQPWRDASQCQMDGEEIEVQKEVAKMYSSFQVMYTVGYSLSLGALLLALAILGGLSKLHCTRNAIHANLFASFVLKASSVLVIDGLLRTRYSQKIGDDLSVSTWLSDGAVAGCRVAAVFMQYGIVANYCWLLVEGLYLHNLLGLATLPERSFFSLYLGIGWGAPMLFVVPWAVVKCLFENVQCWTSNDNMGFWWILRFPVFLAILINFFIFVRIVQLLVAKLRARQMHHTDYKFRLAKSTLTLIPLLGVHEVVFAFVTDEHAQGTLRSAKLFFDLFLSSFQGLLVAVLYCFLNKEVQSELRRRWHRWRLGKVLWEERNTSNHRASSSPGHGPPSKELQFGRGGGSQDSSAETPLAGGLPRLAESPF
GLP1, sequence (P43220 24-463): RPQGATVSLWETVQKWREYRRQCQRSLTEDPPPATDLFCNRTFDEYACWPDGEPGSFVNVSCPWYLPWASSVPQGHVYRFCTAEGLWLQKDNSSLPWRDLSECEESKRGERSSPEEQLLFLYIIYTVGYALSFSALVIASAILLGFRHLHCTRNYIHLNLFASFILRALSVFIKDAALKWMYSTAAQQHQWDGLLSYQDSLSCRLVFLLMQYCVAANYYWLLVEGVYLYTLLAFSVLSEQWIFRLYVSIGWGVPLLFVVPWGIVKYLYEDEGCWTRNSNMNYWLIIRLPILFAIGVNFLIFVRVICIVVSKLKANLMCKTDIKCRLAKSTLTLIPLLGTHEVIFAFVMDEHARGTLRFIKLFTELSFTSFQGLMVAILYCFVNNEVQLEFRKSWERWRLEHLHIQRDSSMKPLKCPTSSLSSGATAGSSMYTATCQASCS
T1 sequence (P43220 24-463): as above

- Solubility data [1]: Water-based buffer at pHs 6.5-7.5
Compound: Eicosanedioic-[…]Glu-(AEEA)2-Lys(Ac-Br)-Gly-OH [Binder Complex]

- EC50 [6]: 90 pM
- EC50 (GCGR): 0.164 nM
- GCGR/GLP-1R (GCGR; ratio of EC50 activity): 10.3
- EC50 (GLP1): 0.0159 nM
Compound: CC[C@H](C)[C@H](NC(=O)[C@H](CC(N)=O)NC(=O)[C@H](CC(N)=O)NC(=O)[C@H](CCCNC(=N)N)NC(=O)[C@H](CC(N)=O)NC(=O)[C@H](CCCNC(=N)N)NC(=O)CNC(=O)C(C)(C)NC(=O)[C@H](CC(N)=O)NC(=O)[C@H](CC(C)C)NC(=O)[C@H](CC(C)C)NC(=O)[C@H](Cc1c[nH]c2ccccc12)NC(=O)[C@H](CCC(N)=O)NC(=O)[C@@H](NC(=O)[C@H](Cc1ccccc1)NC(=O)[C@H](CCC(=O)O)NC(=O)[C@H](CCC(N)=O)NC(=O)[C@H](C)NC(=O)[C@H](CCCCN)NC(=O)[C@H](CCCCN)NC(=O)[C@H](CO)NC(=O)[C@H](CC(=O)O)NC(=O)[C@H](CC(C)C)NC(=O)[C@H](Cc1ccc(O)cc1)NC(=O)[C@H](CCCCN)NC(=O)[C@H](CO)NC(=O)[C@H](Cc1ccc(O)cc1)NC(=O)[C@H](CC(=O)O)NC(=O)[C@H](CO)NC(=O)[C@@H](NC(=O)[C@H](Cc1ccccc1)NC(=O)[C@@H](NC(=O)CNC(=O)[C@H](CCC(N)=O)NC(=O)C(C)(C)NC(=O)[C@@H](N)Cc1c[nH]cn1)[C@@H](C)O)[C@@H](C)O)C(C)C)C(=O)N[C@@H](C)C(=O)N[C@@H](CSCC(=O)NCCCC[C@H](NC(=O)COCCOCCNC(=O)COCCOCCNC(=O)CC[C@H](NC(=O)CCCCCCCCCCCCCCCCCCC(=O)O)C(=O)O)C(=O)NCC(=O)O)C(N)=O [Variant 1] (H-H[Aib]QGTFTSDYSKYLDSKKAQEFVQWLLN[Aib]GRNRNNIAC(X1)-NH2)
- heart weight (DIO mice [2]): reduced
- weight loss over 4 weeks (FIG. 41A, 41B) (DIO mice [3]): significant weight loss over 4 weeks compared to placebo
- food consumption / cumulative food intake (FIG. 17B, 18B) (DIO mice [4]; [12]): Reduced food consumption significantly less than treatment with semaglutide
- weight loss from baseline (FIG. 17A, 18A) (DIO mice [4]; 15 nmol/kg daily, 28 days, OPK-88604 vs semaglutide vs placebo): similar
- relative body weight (day 28), P compared to Vehicle (FIG. 16B) (DIO mice [4]; Mid, 5 nmol/kg QD SC): < 0.05
- absolute and relative body weight and fat mass compared to the vehicle group (DIO mice [4]; high (15 nmol/kg), four weeks): reduced both absolute and relative body weight and fat mass
- relative body weight compared to the vehicle group (DIO mice [4]; mid (5 nmol/kg), four weeks): reduced relative body weight
- relative liver lipid / total liver lipid, P compared to Vehicle (FIG. 31A, 31B) (DIO mice [5]; 15 nmol/kg QD SC): < 0.001
- lipid droplets in liver, H&E staining (FIG. 30A-C) (DIO mice [5]; 28 day treatment, vs placebo and semaglutide, listed as OPK-88604): reduced the amount of lipid droplets in liver compared to placebo and animals treated with semaglutide; also recorded: Significantly reduced the amount of lipid droplets in liver compared to Semaglutide
- liver lipid content (total and relative) (DIO mice [5]; high (15 nmol/kg)): reduced
- total plasma cholesterol and triglycerides on day 28 (FIG. 33A, 33B) (DIO mice [7]; [13]): significantly more effective in reducing total plasma cholesterol and triglycerides compared to semaglutide
- plasma TC levels at termination (DIO mice [7]; [14]): reduced
- blood glucose in response to an oral glucose bolus compared to vehicle controls (DIO mice [8]; all OPK-88604 groups (2, 5, 15 nmol/kg)): reduced blood glucose compared to vehicle controls
- glucose AUC in OGTT (FIG. 38B) (DIO mice [8]; treated for 3 weeks, vs semaglutide): statistically lower
- glucose levels in Oral Glucose Tolerance test (FIG. 38A) (DIO mice [8]; treated for 3 weeks, vs semaglutide, listed as OPK-88604): more effective in reducing glucose levels in an Oral Glucose Tolerance test compared to Semaglutide
- relative fat tissue mass / relative lean tissue mass at week 4, P compared to Vehicle (FIG. 22A, 22B) (DIO mice [9]; 15 nmol/kg QD SC): < 0.01
- relative lean body mass and fat mass change from baseline on day 28 (FIG. 24A, 24B) (DIO mice [9]; [12]): statistically similar
- total liver cholesterol, P compared to Vehicle (FIG. 25B) (DIO mice [10]; 15 nmol/kg QD SC): < 0.05
- total liver cholesterol, triglycerides and glycogen, change from baseline on day 28 (FIG. 28A-C) (DIO mice [10]; [13]): significantly more effective in reducing total liver cholesterol, triglycerides, and glycogen
- total liver TC (DIO mice [10]; high (15 nmol/kg)): reduced
- liver TG (total and relative) (DIO mice [10]; [14]): reduced
- fasting glucose change from baseline on day 28 (FIG. 35A) (DIO mice [11]; [15]): significant decrease in fasting glucose levels compared to semaglutide treatment; also recorded: significantly more effective in lowering fasting glucose levels
- fasting insulin change from baseline on day 28 (FIG. 35B) (DIO mice [11]; [15]): marked increase in insulin levels from baseline compared to semaglutide treatment; also recorded: increased insulin levels compared to Semaglutide
- blood glucose levels at study week 4 (DIO mice [11]; all doses (2, 5, 15 nmol/kg)): reduced blood glucose levels
- plasma insulin levels during the glucose tolerance test and preterminal (DIO mice [11]; high (15 nmol/kg)): decreased
